Laboratory results as given in patent publication US10478426B2, “Enhancer of Zeste Homolog 2 inhibitors” (GlaxoSmithKline LLC, priority 2012, dated 2019).

target: EZH2 within the PRC2 complex (Homo sapiens (Human), UniProt Q15910); assay: EZH2 methyltransferase scintillation proximity assay (SPA) with PRC2 complex; type: biochemical; conditions: 3H-SAM methyl transfer to Histone H3 of HeLa mononucleosomes; 30 min preincubation, 1 hour reaction
Description: Compounds contained herein were evaluated for their ability to inhibit the methyltransferase activity of EZH2 within the PRC2 complex. Human PRC2 complex was prepared by co-expressing each of the 5 member proteins (FLAG-EZH2, EED, SUZ12, RbAp48, AEBP2) in Sf9 cells followed by co-purification. Enzyme activity was measured in a scintillation proximity assay (SPA) where a tritiated methyl group is transferred from 3H-SAM to a lysine residue on Histone H3 of a mononucleosome, purified from HeLa cells. Mononucleosomes were captured on SPA beads and the resulting signal is read on a ViewLux plate reader.
Part A. Compound Preparation
• 1. Prepare 10 mM stock of compounds from solid in 100% DMSO. • 2. Set up an 11-point serial dilution (1:3 dilution, top concentration 10 mM) in 100% DMSO for each test compound in a 384 well plate leaving columns 6 and 18 for DMSO controls. • 3. Dispense 100 nL of compound from the dilution plate into reaction plates (Grenier Bio-One, 384-well, Cat #784075). Part B. Reagent Preparation Prepare the Following Solutions: • 1. 50 mM Tris-HCl, pH 8: Per 1 L of base buffer, combine 1 M Tris-HCl, pH 8 (50 mL) and distilled water (950 mL). • 2. 1× Assay Buffer: Per 10 mL of 1× Assay Buffer, combine 50 mM Tris-HCl, pH 8 (9958 uL), 1 M MgCl2 (20 uL), 2 M DTT (20 uL), and 10% Tween-20 (2 uL) to provide a final concentration of 50 mM Tris-HCl, pH 8, 2 mM MgCl2, 4 mM DTT, 0.002% Tween-20. • 3. 2× Enzyme Solution: Per 10 mL of 2× Enzyme Solution, combine 1× Assay Buffer and PRC2 complex to provide a final enzyme concentration of 10 nM. • 4. SPA Bead Suspension: Per 1 mL of SPA Bead Suspension, combine PS-PEI coated LEADSeeker beads (40 mg) and ddH2O (1 mL) to provide a final concentration of 40 mg/mL. • 5. 2× Substrate Solution: Per 10 mL of 2× Substrate Solution, combine 1× Assay Buffer (9728.55 uL), 800 ug/mL mononucleosomes (125 uL), 1 mM cold SAM (4 uL), and 7.02 uM 3H-SAM (142.45 uL; 0.55 mCi/mL) to provide a final concentration of 5 ug/mL nucleosomes, 0.2 uM cold SAM, and 0.05 uM 3H-SAM. • 6. 2.67× Quench/Bead Mixture: Per 10 mL of 2.67× Quench/Bead Mixture, combine ddH2O (9358 uL), 10 mM cold SAM (267 uL), 40 mg/mL Bead Suspension (375 uL) to provide a final concentration of 100 uM cold SAM and 0.5 mg/mL SPA beads. Part C. Assay Reaction in 384-Well Grenier Bio-One Plates Compound Addition • 1. Dispense 100 nL/well of 100× Compound to test wells (as noted above). • 2. Dispense 100 nL/well of 100% DMSO to columns 6 & 18 for high and low controls, respectively. Assay • 1. Dispense 5 uL/well of 1× Assay Buffer to column 18 (low control reactions). • 2. Dispense 5 uL/well of 2× Enzyme Solution to columns 1-17, 19-24. • 3. Spin assay plates for ˜1 minute at 500 rpm. • 4. Stack the assay plates, covering the top plate. • 5. Incubate the compound/DMSO with the enzyme for 30 minutes at room temperature. • 6. Dispense 5 uL/well of 2× Substrate Solution to columns 1-24. • 7. Spin assay plates for ˜1 minute at 500 rpm. • 8. Stack the assay plates, covering the top plate. • 9. Incubate the assay plates at room temperature for 1 hour. Quench/Bead Addition • 1. Dispense 5 uL/well of the 3× Quench/Bead Mixture to columns 1-24. • 2. Seal the top of each assay plate with adhesive TopSeal. • 3. Spin assay plates for ˜1 minute at 500 rpm. • 4. Equilibrate the plates for >20 min. Read Plates • 1. Read the assay plates on the Viewlux Plate Reader utilizing the 613 nm emission filter with a 300 s read time. Reagent addition can be done manually or with automated liquid handler. • The final DMSO concentration in this assay is 1%. • The positive control is in column 6; negative control is in column 18. • Final starting concentration of compounds is 100 μM. Results
Percent inhibition was calculated relative to the DMSO control for each compound concentration and the resulting values were fit using standard IC50 fitting parameters within the ABASE data fitting software package.

EZH2 within the PRC2 complex, sequence (Q15910 whole entry): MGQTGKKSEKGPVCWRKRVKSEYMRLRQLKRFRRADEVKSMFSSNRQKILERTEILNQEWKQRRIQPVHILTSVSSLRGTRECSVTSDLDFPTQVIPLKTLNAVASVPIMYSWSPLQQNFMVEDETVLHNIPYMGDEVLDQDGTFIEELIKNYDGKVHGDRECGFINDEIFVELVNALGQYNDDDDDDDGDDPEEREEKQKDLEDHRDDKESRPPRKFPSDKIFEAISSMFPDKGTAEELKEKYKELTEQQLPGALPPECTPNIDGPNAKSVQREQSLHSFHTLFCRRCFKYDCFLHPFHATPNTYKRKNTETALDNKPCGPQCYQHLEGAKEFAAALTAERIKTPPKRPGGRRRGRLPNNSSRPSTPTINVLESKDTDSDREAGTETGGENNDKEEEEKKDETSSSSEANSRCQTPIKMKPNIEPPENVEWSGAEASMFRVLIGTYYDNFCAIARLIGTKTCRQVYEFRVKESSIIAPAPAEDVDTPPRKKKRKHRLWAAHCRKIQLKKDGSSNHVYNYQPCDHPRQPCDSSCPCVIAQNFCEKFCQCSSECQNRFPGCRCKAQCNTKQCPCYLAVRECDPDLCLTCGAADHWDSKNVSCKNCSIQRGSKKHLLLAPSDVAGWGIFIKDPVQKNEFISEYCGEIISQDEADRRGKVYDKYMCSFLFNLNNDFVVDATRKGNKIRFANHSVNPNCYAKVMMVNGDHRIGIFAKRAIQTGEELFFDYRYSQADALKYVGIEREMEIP
EZH2 within the PRC2 complex, sequence (O75530 whole entry partner): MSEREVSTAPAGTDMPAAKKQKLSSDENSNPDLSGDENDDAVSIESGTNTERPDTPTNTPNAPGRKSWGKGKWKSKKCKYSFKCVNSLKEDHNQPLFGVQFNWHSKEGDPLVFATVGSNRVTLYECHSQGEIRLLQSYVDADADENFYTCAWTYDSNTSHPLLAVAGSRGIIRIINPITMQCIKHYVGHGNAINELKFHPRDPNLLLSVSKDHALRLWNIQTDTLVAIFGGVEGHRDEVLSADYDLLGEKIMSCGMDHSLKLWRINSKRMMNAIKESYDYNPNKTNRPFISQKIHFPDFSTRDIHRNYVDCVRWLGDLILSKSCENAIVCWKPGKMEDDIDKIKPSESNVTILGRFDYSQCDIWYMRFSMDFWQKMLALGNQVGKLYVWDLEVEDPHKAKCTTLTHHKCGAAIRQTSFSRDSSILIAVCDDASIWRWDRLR
EZH2 within the PRC2 complex, sequence (Q15022 whole entry partner): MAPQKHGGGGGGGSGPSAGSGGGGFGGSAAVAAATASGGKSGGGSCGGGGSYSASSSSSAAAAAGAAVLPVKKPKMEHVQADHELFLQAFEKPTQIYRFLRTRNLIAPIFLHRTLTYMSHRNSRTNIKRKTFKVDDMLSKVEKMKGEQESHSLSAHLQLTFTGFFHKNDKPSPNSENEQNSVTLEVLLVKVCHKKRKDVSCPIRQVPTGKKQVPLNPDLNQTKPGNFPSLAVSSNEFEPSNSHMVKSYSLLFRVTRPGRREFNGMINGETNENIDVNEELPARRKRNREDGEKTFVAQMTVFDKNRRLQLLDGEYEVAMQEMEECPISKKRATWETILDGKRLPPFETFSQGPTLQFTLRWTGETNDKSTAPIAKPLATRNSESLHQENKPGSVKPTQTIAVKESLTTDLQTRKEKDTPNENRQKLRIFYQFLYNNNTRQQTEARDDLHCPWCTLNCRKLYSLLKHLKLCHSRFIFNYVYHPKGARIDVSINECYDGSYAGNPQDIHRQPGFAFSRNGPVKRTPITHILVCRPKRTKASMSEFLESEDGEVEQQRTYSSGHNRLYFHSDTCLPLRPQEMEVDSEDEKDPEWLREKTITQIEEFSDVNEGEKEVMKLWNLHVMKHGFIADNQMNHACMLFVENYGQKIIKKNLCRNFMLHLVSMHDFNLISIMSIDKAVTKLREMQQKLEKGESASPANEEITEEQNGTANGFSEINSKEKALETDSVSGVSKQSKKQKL
EZH2 within the PRC2 complex, sequence (Q09028 whole entry partner): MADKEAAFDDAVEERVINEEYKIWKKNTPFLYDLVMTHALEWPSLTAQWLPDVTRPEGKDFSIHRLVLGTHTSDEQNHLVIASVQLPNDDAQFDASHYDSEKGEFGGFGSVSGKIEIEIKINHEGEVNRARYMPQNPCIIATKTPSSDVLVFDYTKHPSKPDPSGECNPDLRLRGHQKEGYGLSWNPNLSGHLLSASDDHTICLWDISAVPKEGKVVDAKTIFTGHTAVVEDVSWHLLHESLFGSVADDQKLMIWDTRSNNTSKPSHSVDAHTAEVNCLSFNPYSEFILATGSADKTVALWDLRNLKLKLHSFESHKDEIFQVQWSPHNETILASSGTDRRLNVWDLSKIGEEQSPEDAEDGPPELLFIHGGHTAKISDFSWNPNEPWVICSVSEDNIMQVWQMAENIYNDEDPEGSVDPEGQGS
EZH2 within the PRC2 complex, sequence (Q6ZN18 whole entry partner): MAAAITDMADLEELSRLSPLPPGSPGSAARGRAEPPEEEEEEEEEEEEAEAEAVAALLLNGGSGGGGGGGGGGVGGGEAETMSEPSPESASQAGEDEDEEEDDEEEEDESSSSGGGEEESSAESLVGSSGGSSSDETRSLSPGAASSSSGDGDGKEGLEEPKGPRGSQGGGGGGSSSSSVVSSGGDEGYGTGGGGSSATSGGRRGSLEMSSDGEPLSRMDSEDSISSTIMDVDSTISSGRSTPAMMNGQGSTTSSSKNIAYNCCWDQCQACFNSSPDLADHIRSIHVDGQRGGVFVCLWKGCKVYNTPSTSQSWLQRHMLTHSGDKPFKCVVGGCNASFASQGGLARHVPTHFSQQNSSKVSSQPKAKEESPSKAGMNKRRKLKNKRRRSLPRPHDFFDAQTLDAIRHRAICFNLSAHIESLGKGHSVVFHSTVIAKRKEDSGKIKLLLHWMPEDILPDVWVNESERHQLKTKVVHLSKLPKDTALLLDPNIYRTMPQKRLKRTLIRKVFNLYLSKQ

Compound	IC50 [nM]
CCCc1cc(C)[nH]c(=O)c1CNC(=O)c1cc(Br)cc(NC(C)C)c1C [Example 1, 5-Bromo-2-methyl-3-[(1-methylethyl)amino]-N-[(6-methyl-2-oxo-4-propyl-1,2-dihydro-3-pyridinyl)methyl]benzamide]	501
CCCc1cc(C)[nH]c(=O)c1CNC(=O)c1cc(-c2ccc(N3CCN(C)CC3)nc2)cc(NC(C)C)c1C [Example 2, 2-Methyl-3-[(1-methylethyl)amino]-N-[(6-methyl-2-oxo-4-propyl-1,2-dihydro-3-pyridinyl)methyl]-5-[6-(4-methyl-1-piperazinyl)-3-pyridinyl]benzamide]	40
CCC(C)Oc1cc(Br)cc(C(=O)NCc2c(C)cc(C)[nH]c2=O)c1C (centres unmarked) [Example 20, 5-Bromo-3-(sec-butoxy)-N-((4,6-dimethyl-2-oxo-1,2-dihydropyridin-3-yl)methyl)-2-methylbenzamide]	13
CCC(C)Oc1cc(C#N)cc(C(=O)NCc2c(C)cc(C)[nH]c2=O)c1C (centres unmarked) [Example 44, 3-(sec-Butoxy)-5-cyano-N-((4,6-dimethyl-2-oxo-1,2-dihydropyridin-3-yl)methyl)-2-methylbenzamide]	316

Second part, the compound after the results:

IC50 [nM]	Compound
50	Cc1cc(Cc2ccccc2)c(CNC(=O)c2cc(Br)cc(NC(C)C)c2C)c(=O)[nH]1 [Example 4, 5-Bromo-2-methyl-3-[(1-methylethyl)amino]-N-{[6-methyl-2-oxo-4-(phenylmethyl)-1,2-dihydro-3-pyridinyl]methyl}benzamide]
250	Cc1cc(C)c(CNC(=O)c2cc(Cl)cc(OC(C)C)c2Cl)c(=O)[nH]1 [Example 24, 2,5-Dichloro-N-[(4,6-dimethyl-2-oxo-1,2-dihydro-3-pyridinyl)methyl]-3-[(1-methylethyl)oxy]benzamide]
1000	Cc1cc(C)c(CNC(=O)c2cc(Cl)cc(NC(C)CO)c2C)c(=O)[nH]1 (centres unmarked) [Example 26, 5—Chloro-N-[(4,6-dimethyl-2-oxo-1,2-dihydro-3-pyridinyl)methyl]-3-[(2-hydroxy-1-methylethyl)amino]-2-methylbenzamide]
2500	COc1cccc(C(=O)NCc2c(C)cc(C)[nH]c2=O)c1C [Example 36, N-((4,6-dimethyl-2-oxo-1,2-dihydropyridin-3-yl)methyl)-3-methoxy-2-methylbenzamide]
